In US5414006A, “Arylalkoxythiocoumarins, the preparation thereof and therapeutic compositions containing these” (BASF Aktiengesellschaft, priority 1992, dated 1995):

Experiments:
MAO B = target: T1, MAO B (Rattus norvegicus, UniProt P19643); assay: MAO B inhibition in dilute rat brain homogenate; format: biochemical; settings: 20 min; for IC50: dilute rat brain homogenate, 14C-phenylethylamine or 14C-tryptamine 0.4 μmol/l, 37° C.; for MAO A / MAO B IC50 ratio: selectivity for MAO B over MAO A, rat brain homogenate
T1 construct: from tissue; host or cells: rat brain homogenate
T1 sequence (P19643 1-520): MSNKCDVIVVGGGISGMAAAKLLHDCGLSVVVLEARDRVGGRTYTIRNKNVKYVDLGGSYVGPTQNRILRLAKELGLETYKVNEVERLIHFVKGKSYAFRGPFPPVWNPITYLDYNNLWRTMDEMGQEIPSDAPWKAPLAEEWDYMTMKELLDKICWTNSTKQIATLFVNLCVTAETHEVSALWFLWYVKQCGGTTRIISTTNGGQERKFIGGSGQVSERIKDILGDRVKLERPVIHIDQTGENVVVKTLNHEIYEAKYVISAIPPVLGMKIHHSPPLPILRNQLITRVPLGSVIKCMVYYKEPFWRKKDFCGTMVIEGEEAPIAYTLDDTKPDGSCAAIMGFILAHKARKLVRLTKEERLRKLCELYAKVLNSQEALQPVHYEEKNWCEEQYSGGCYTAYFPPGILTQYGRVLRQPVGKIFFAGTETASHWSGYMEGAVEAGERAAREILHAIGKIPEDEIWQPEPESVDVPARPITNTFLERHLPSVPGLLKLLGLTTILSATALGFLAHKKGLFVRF
Protocol: (§1) The MAO-inhibiting activity of the compounds according to the invention can be determined using standard methods. Thus, monoamine oxidases A and B were determined in dilute rat brain homogenate to which test substances in various concentrations and ^14 C-phenylethylamine or ^14 C-tryptamine in a concentration of 0.4 μmol/l were added. This mixture was incubated at 37° C. for 20 min.
(§2) The reaction was then stopped with 0.1 normal HCl, and the products were determined after extraction in a toluene scintillator (PPO+POPOP in toluene). The blank was determined on a similar mixture with an incubation time of 0 min.
(§3) The median inhibitory concentration (IC50) was calculated by linear regression after logit-log transformation from the values for the inhibition at the various concentrations relative to the control.

MAO A = target: T2, MAO A (Rattus norvegicus, UniProt P21396); assay: MAO A inhibition in dilute rat brain homogenate; format: biochemical; settings: 14C-phenylethylamine or 14C-tryptamine 0.4 μmol/l, 37° C., 20 min
T2 construct: from tissue; host or cells: rat brain homogenate
T2 sequence (P21396 1-526): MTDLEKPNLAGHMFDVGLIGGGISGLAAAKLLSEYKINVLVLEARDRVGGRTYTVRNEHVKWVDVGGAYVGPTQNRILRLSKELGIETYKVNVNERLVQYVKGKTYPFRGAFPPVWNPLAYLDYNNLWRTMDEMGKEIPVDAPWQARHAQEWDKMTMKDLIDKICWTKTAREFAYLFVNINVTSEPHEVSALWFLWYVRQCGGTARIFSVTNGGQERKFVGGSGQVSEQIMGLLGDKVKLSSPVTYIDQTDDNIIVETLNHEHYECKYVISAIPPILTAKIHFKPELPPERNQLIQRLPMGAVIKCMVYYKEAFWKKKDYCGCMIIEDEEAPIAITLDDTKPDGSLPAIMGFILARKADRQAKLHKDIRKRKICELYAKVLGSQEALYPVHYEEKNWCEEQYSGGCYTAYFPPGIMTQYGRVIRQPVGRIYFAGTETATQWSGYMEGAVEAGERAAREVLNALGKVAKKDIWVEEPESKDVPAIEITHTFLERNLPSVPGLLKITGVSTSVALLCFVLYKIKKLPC
Protocol: as §1, §2, §3

| Compound | IC50 (MAO B) | MAO A / MAO B IC50 ratio (MAO B) | IC50 (MAO A) |
| --- | --- | --- | --- |
| Cc1nnc(COc2ccc3c(C)c(C)c(=S)oc3c2)o1 [Example 3, 3,4-Dimethyl-7-(2-methyl-1,3,4-oxadiazol-5-ylmethoxy)-2-thiocoumarin] | 10 nM | > 1000 | > 10000 nM |
| Cc1c(C)c2ccc(OCc3csc(C(C)C)n3)cc2oc1=S [Example 2, 3,4-Dimethyl-7-(2-isopropylthiazol-4-ylmethoxy)-2-thiocoumarin] | 3 nM | > 3333 | > 10000 nM |
| CC(C)c1ccc(COc2ccc3ccc(=S)oc3c2)cc1 [Example 12, 7-(4-Isopropylbenzyloxy)-2-thiocoumarin] | 3 nM | > 3333 | ≥ 10000 nM |
| Cc1c(C)c2cc(Cl)c(OCc3nnc(C4CC4)s3)cc2oc1=S [Example 14, 6-Chloro-3,4-dimethyl-7-(2-cyclopropyl-1,3,4-thiadiazol-5-ylmethoxy)-2-thiocoumarin] | 6 nM | > 1667 | > 10000 nM |

Continued by falling IC50 (MAO B), values first:

| IC50 (MAO B) | MAO A / MAO B IC50 ratio (MAO B) | IC50 (MAO A) | Compound |
| --- | --- | --- | --- |
| 3 nM | > 3333 | > 10000 nM | Cc1c(C)c2cc(Cl)c(OCc3nnc(C(C)C)s3)cc2oc1=S [Example 13, 6-Chloro-3,4-dimethyl-7-(2-isopropyl-1,3,4-thiadiazol-5-ylmethoxy)-2-thiocoumarin] |
| 2 nM | > 5000 | ≥ 10000 nM | CCCc1nnc(COc2ccc3c(C)c(C)c(=S)oc3c2)s1 [Example 4, 3,4-Dimethyl-7-(2-n-propyl-1,3,4-thiadiazol-5-ylmethoxy)-2-thiocoumarin] |
| 1 nM | > 10,000 | > 10000 nM | Cc1c(C)c2ccc(OCc3nnc(C(C)C)s3)cc2oc1=S [Example 1, 3,4-Dimethyl-7-(2-isopropyl-1,3,4-thiadiazol-5-ylmethoxy)-2-thiocoumarin] |
